Read-outs that look alike come from different tables or passages of the source.

Turning to `CCn1c(-c2cc(N3CCN(C(=O)OCc4ccccc4)CC3)cnc2[C@H](C)OC)c2c3cc(ccc31)-c1cc(cc(O[Si](C(C)C)(C(C)C)C(C)C)c1)C[C@H](NC(=O)OC(C)(C)C)C(=O)N1CCC[C@H](N1)C(=O)OCC(C)(C)C2`, for the setting “from CCn1c(-c2cc(N3CCN(C(=O)OCc4ccccc4)CC3)cnc2[C@H](C)OC)c(CC(C)(C)CO)c2cc(-c3cc(C[C@H](NC(=O)OC(C)(C)C)C(=O)N4CCC[C@@H](C(=O)O)N4)cc(O[Si](C(C)C)(C(C)C)C(C)C)c3)ccc21, ester bond, 18-membered ring, EDCI/HOBt/DIEA, DCM, 9.3 mM, 25.0 °C, 16.0 h”, the ring closure, isolated yield was 63%.

On to “tert-butyl (3aS,6S,9S,15S,32aS)-6-isopropyl-21-(2-((S)-1-methoxyethyl)-5-(4-(oxetan-3-yl)piperazin-1-yl)pyridin-3-yl)-5,19,19-trimethyl-4,7,10,16-tetraoxo-22-(2,2,2-trifluoroethyl)-2,3,3a,4,5,6,7,8,9,10,13,14,15,16,18,19,20,22,32,32a-icosahydro-1H,12H-11,15-epimino-23,25-etheno-9,28-methano-26,30-(metheno)dipyrrolo[2,3-c:3′,4′-v][1,18]dioxa[6,9,12]triazacyclotriacontine-1-carboxylate”, for which the ring closure, isolated yield (ether bond, 14-membered ring) was found to be 76%.

In the case of `CCOC(=O)[C@@H]1Cc2nc(Br)nn2/C=C/[C@@H]2[C@H](CCN2C(=O)OC(C)(C)C)C(=O)N(C)[C@@H](C(C)C)C(=O)N1`, the ring closure, isolated yield (from C=C[C@@H]1[C@@H](C(=O)N(C)[C@H](C(=O)N[C@@H](Cc2nc(Br)nn2C=C)C(=O)OCC)C(C)C)CCN1C(=O)OC(C)(C)C, rcm bond, 13-membered ring, Grubbs G2/Ti(OiPr)4, DCM, 15.3 mM, 45.0 °C, 12.0 h) was 27%.

Regarding `COC(=O)[C@@H]1Cc2cc(I)cc(c2)OC[C@@H]2[C@H](CCN2C(=O)OC(C)(C)C)C(=O)N(C)[C@@H](C(C)C)C(=O)N1`, the ring closure, isolated yield (from COC(=O)[C@H](Cc1cc(O)cc(I)c1)NC(=O)[C@H](C(C)C)N(C)C(=O)[C@H]1CCN(C(=O)OC(C)(C)C)[C@@H]1COS(=O)(=O)c1ccc(C)cc1, ether bond, 14-membered ring, K2CO3/KI, DMF, 12.2 mM, 80.0 °C, 2.0 h) was 66%.

Where the note is “from CCn1c(-c2cc(Oc3cccnc3)cnc2[C@H](C)OC)c(CC(C)(C)CO)c2cc(-c3cc(C[C@H](NC(=O)OC(C)(C)C)C(=O)N4CCC[C@@H](C(=O)O)N4)cc(O[Si](C(C)C)(C(C)C)C(C)C)c3)ccc21, ester bond, 18-membered ring, EDCI/HOBt/DIPEA, DCM, 9.9 mM, 25.0 °C, 12.0 h, 4 steps”, `CCn1c(-c2cc(Oc3cccnc3)cnc2[C@H](C)OC)c2c3cc(ccc31)-c1cc(cc(O[Si](C(C)C)(C(C)C)C(C)C)c1)C[C@H](NC(=O)OC(C)(C)C)C(=O)N1CCC[C@H](N1)C(=O)OCC(C)(C)C2` had a ring closure, isolated yield of 67%.

As to `CCn1c(-c2cc(N3CCN(C4CC4)CC3)cnc2[C@H](C)OC)c(CC(C)(C)CO)c2cc(-c3cc4cc(c3)C[C@@H](C(=O)OC)NC(=O)[C@H](C(C)C)N(C)C(=O)[C@H]3CCCN(C(C)=O)N3CC4)ccc21`, the ring closure, isolated yield (from CCn1c(-c2cc(N3CCN(C4CC4)CC3)cnc2[C@H](C)OC)c(CC(C)(C)CO)c2cc(-c3cc(CCN4[C@@H](C(=O)O)CCCN4C(C)=O)cc(C[C@H](NC(=O)[C@@H](NC)C(C)C)C(=O)OC)c3)ccc21, amide bond, 14-membered ring, COMU/DIPEA, DMF, 54.0 mM, 25.0 °C, 1.0 h, 2 steps) stood at 42%.

For the compound `CCn1c(-c2cc(N3CCN(C(=O)OCc4ccccc4)CC3)cnc2[C@H](C)OC)c2c3nc(ccc31)-c1cc(cc(O[Si](C(C)C)(C(C)C)C(C)C)c1)C[C@H](NC(=O)OC(C)(C)C)C(=O)N1CCC[C@H](N1)C(=O)OCC(C)(C)C2`, for the setting “from CCn1c(-c2cc(N3CCN(C(=O)OCc4ccccc4)CC3)cnc2[C@H](C)OC)c(CC(C)(C)CO)c2nc(-c3cc(C[C@H](NC(=O)OC(C)(C)C)C(=O)N4CCC[C@@H](C(=O)O)N4)cc(O[Si](C(C)C)(C(C)C)C(C)C)c3)ccc21, ester bond, 18-membered ring, EDCI/HOBt/DIEA, DCM, 32.0 mM, 25.0 °C, 16.0 h, 2 steps”, the ring closure, isolated yield came to 42%.

`CCn1c(-c2cc(OCc3ccccc3)cnc2[C@H](C)OC)c2c3cc(ccc31)-c1cc(cc(O[Si](C(C)C)(C(C)C)C(C)C)c1)C[C@H](NC(=O)OC(C)(C)C)C(=O)N1CCC[C@H](N1)C(=O)OCC(C)(C)C2` had a ring closure, isolated yield (from CCn1c(-c2cc(OCc3ccccc3)cnc2[C@H](C)OC)c(CC(C)(C)CO)c2cc(-c3cc(C[C@H](NC(=O)OC(C)(C)C)C(=O)N4CCC[C@@H](C(=O)O)N4)cc(O[Si](C(C)C)(C(C)C)C(C)C)c3)ccc21, ester bond, 18-membered ring, EDCI/HOBt/DIPEA, DCM, 9.8 mM, 25.0 °C, 16.0 h, 4 steps) of 67%.

`CCOC(=O)[C@@H]1Cc2nc(Br)sc2C=C[C@@H]2[C@H](CCN2C(=O)OC(C)(C)C)C(=O)N(C)[C@@H](C(C)C)C(=O)N1` showed a ring closure, isolated yield (from C=Cc1sc(Br)nc1C[C@H](NC(=O)[C@H](C(C)C)N(C)C(=O)[C@H]1CCN(C(=O)OC(C)(C)C)[C@@H]1C=C)C(=O)OCC, rcm bond, 13-membered ring, Grubbs G2/Ti(OiPr)4, DCM, 28.3 mM, 45.0 °C, 16.0 h) of 20%.

As for `CCn1c(-c2cc(N3CCN(C(=O)OCc4ccccc4)CC3)cnc2[C@H](C)OC)c2c3cc(ccc31)-c1cc(cc(O[Si](C(C)C)(C(C)C)C(C)C)c1)C[C@H](NC(=O)OC(C)(C)C)C(=O)N1CCC[C@H](N1)C(=O)OCC(F)(F)C2`, the ring closure, isolated yield (from CCn1c(-c2cc(N3CCN(C(=O)OCc4ccccc4)CC3)cnc2[C@H](C)OC)c(CC(F)(F)CO)c2cc(-c3cc(C[C@H](NC(=O)OC(C)(C)C)C(=O)N4CCC[C@@H](C(=O)O)N4)cc(O[Si](C(C)C)(C(C)C)C(C)C)c3)ccc21, ester bond, 18-membered ring, EDCI/HOBt/DIEA, DCM, 32.0 mM, 25.0 °C, 16.0 h, 2 steps) was determined as 75%.

For the setting “from COC(=O)[C@@H](N)Cc1cc(Br)cc(CC[C@@H]2[C@@H](C(=O)N(C)[C@H](C(=O)O)C(C)C)CCN2C(=O)OC(C)(C)C)c1, amide bond, 14-membered ring, HATU/DIEA, DMF, 16.0 mM, 25.0 °C, 1.0 h, 2 steps”, `COC(=O)[C@@H]1Cc2cc(Br)cc(c2)CC[C@@H]2[C@H](CCN2C(=O)OC(C)(C)C)C(=O)N(C)[C@@H](C(C)C)C(=O)N1` came in with a ring closure, isolated yield of 34%.

`CO[C@@H](C)c1ncc(C2CCN(C(=O)OCc3ccccc3)CC2)cc1-c1c2c3cc(ccc3n1CC(F)(F)F)-c1cc(cc(O[Si](C(C)C)(C(C)C)C(C)C)c1)C[C@H](NC(=O)OC(C)(C)C)C(=O)N1CCC[C@H](N1)C(=O)OCC(C)(C)C2` registered a ring closure, isolated yield (from CO[C@@H](C)c1ncc(C2CCN(C(=O)OCc3ccccc3)CC2)cc1-c1c(CC(C)(C)CO)c2cc(-c3cc(C[C@H](NC(=O)OC(C)(C)C)C(=O)N4CCC[C@@H](C(=O)O)N4)cc(O[Si](C(C)C)(C(C)C)C(C)C)c3)ccc2n1CC(F)(F)F, ester bond, 18-membered ring, EDCI/HOBt/DIEA, DCM, 8.4 mM, 25.0 °C, 16.0 h, 3 steps) of 42%.

`CCc1c(-c2cc(N3CCN(C(=O)OCc4ccccc4)CC3)cnc2[C@H](C)OC)n2c3cc(ccc13)-c1cc(cc(O[Si](C(C)C)(C(C)C)C(C)C)c1)C[C@H](NC(=O)OC(C)(C)C)C(=O)N1CCC[C@H](N1)C(=O)OCC(C)(C)C2` yielded a ring closure, isolated yield (from CCc1c(-c2cc(N3CCN(C(=O)OCc4ccccc4)CC3)cnc2[C@H](C)OC)n(CC(C)(C)CO)c2cc(-c3cc(C[C@H](NC(=O)OC(C)(C)C)C(=O)N4CCC[C@@H](C(=O)O)N4)cc(O[Si](C(C)C)(C(C)C)C(C)C)c3)ccc12, ester bond, 18-membered ring, EDCI/HOBt/DIEA, DCM, 8.8 mM, 25.0 °C, 16.0 h, 2 steps) of 48%.

Regarding `COC(=O)[C@@H]1Cc2cc(Cl)cc(c2)CCN2[C@H](CC[C@H]2C(=O)N(C)C)C(=O)N(C)[C@@H](C(C)C)C(=O)N1`, the ring closure, isolated yield (from COC(=O)[C@@H](N)Cc1cc(Br)cc(CCN2[C@@H](C(=O)N(C)[C@H](C(=O)O)C(C)C)CC[C@H]2C(=O)N(C)C)c1, amide bond, 14-membered ring, HATU/DIEA, DMF, 17.1 mM, 25.0 °C, 1.0 h, 2 steps) is 44%.

These data come from patent US20260159539.
